Consider 56 compounds from US20010049374A1 (priority 1997, published 2001).

Like-named read-outs stand apart in the source and are kept apart here. Bounds are passed on as bounds.

As usually defined, the IC50 is the concentration at which inhibition is half-maximal.

The assay deals with T1, urokinase enzyme Abbokinase (Homo sapiens, UniProt P00749).
T1 construct: purchased Abbott Laboratories, Abbott Park, Ill
The assay can be described thus: Determination of urokinase inhibition (Abbokinase, chromogenic substrate S-2444). The format is biochemical.

[1] abbreviates: Inhibitory potency against urokinase, substrate S-2444 at 200 μM, enzyme 2-3 nM, pH 7.4, 405 nm, read-out: IC50.
Where [2] appears, read: IC50, Inhibitory potency against urokinase, substrate S-2444 at 200 μM, enzyme 2-3 nM, pH 7.4, 405 nm.

Experimental: Several vials were reconstituted as directed on the vial, aliquoted and stored frozen. The enzyme was further diluted in assay buffer and 10 μl was used in the assay. Enzyme concentration in the assay was 2-3 nM. […] The Spectromax® calculated the reaction rates which were used to calculate percent inhibition of the compounds of this invention versus the reaction rate of the enzyme in the absence of any inhibitor. The Ki's of the inhibitors were calculated from the percent inhibition and previously established Km.

Consider “1-[(7-Aminoiminomethyl-2-methoxy-1-naphthalenyl)oxy]-3-phenylpropane [Example 23]”, for which the IC50 under setting [1] worked out at 4 µM. Regarding “N-(6-Aminoiminomethyl-2-naphthalenyl)-N′-benzylurea [Example 69]”, under setting [1], the IC50 is 1.38 µM.

In turn, `N=C(N)c1ccc2cc(N)ccc2c1` [Example 73, 6-Aminonaphthalene-2-carboximidamide] returned an IC50 under setting [2] of 3.3 µM. For the compound “N-[4-(aminocarbonyl)phenyl]-6-(aminoiminomethyl)-2-naphthalenecarboxamide [Example 184]”, the IC50 under setting [1] is 0.375 µM. Still for that read-out and setting: in the case of “2-[(7-Aminoiminomethyl-3-methoxy-1-naphthalenyl)oxy]acetamide [Example 39]” it was 12.2 µM; in that of “(E)-4-[2-(6-Aminoiminomethyl-2-naphthalenyl)ethenyl]benzoic acid [Example 84]”, 10 µM. As to “4-[7-(Aminoiminomethyl)-2-methoxy-1-naphthalenyl]dihydro-2(3H)-furanone [Example 85]”, the IC50 under setting [1] amounted to 1.38 µM. “7-Methoxy-8-(1-acetyl-1H-pyrazolyl)-2-naphthalenecarboximidamide [Example 86]”: under setting [1], the IC50 was 3.6 µM. `N=C(N)c1ccc2cc(OCCc3ccc(N)cc3)ccc2c1` [Example 89, 6-[2-(4-Aminophenyl)ethoxy]-2-naphthalenecarboximidamide] had an IC50 under setting [2] of 6.5 µM.

With `CSc1cc(-c2cc(C(=O)Nc3ccccc3)cc3ccc(C(=N)N)cc23)co1` [Example 154, 6-(aminoiminomethyl-4-[5-(methylthio)-3-furanyl)]-N-phenyl-2-naphthalenecarboxamide], the IC50 under setting [2] amounted to 0.035 µM. With “6-(aminoiminomethyl)-N-[4-(hydroxymethyl)phenyl]-2-naphthalenecarboxamide [Example 92]”, under setting [1], the IC50 worked out at 0.04 µM.

Take “N-(6-Aminoiminomethyl-2-naphthalenyl)-N′-methylurea [Example 70]”: the concentration for half-maximal inhibition (IC50) under setting [1] came to 2.57 µM. For the compound “6-(aminoiminomethyl)-4-[5-(methylsulfonyl)-3-furanyl]-N-phenyl-2-naphthalenecarboxamide [Example 231]”, the half-inhibitory concentration (IC50) under setting [1] came to 0.015 µM. Same read-out and setting: then `COc1ccc2ccc(C(=N)N)cc2c1Oc1nccs1` [Example 65, 7-Methoxy-8-[2-thiazoyl(oxy)]naphthalene-2-carboximidamide], with 0.54 µM; and `CC(C)(C)OC(=O)Nc1ccc(NC(=O)Nc2ccc3cc(C(=N)N)ccc3c2)cc1` [Example 79, 1,1-dimethylethyl [4-[[[6-aminoiminomethyl)-2-naphthalenyl)amino]carbonyl]amino]phenyl carbamate], with 0.96 µM.

“6-(aminoiminomethyl)-4-(3-furanyl)-N-(3-pyridinyl)-2-naphthalenecarboxamide [Example 117]”: the IC50 under setting [1] is 0.278 µM. Take `N=C(N)c1ccc2cc(NC(=O)C3CCC(CN)CC3)ccc2c1` (centres unmarked) [Example 139, N-[6-(aminoiminomethyl)-2-naphthalenyl]-4-4-(aminomethyl)cyclohexanescarboxamide]: the IC50 under setting [2] is 2.64 µM. Turning to `N=C(N)c1ccc2cc(/C=C/c3ccc(C(N)=O)cc3)ccc2c1` [Example 88, (E)-4-[2-(6-Aminoininomethyl-2-naphthalenyl)ethenyl]benzamide], the IC50 under setting [1] was found to be 2.73 µM. The same measure, in the same setting: in the case of “(S)-2-Amino-N-[1-[(6-aminoiminomethyl-2-naphthalenyl)carbonyl]cyclohexyl]propionamide [Example 37]” it was 2.34 µM. As for `N=C(N)c1ccc2cc(C#CCCCc3ccccc3)ccc2c1` [Example 32, 6-(5-Phenylpentynyl)-2-naphthalenecarboximidamide], under setting [2], the IC50 turned out to be 4.6 µM. In the case of `N=C(N)c1ccc2ccc(OCc3ccccc3)c(I)c2c1` [Example 5, 7-Benzyloxy-8-iodo-2-naphthalenecarboximidamide], inhibition under setting [2] was half-maximal at 2.5 µM (IC50). As to “6-(aminoiminomethyl)-4-(3-furanyl)-N-[4-(trifluoromethyl)phenyl]-2-naphthalenecarboxamide [Example 114]”, the IC50 under setting [1] was found to be 0.344 µM. On the same count and under the same terms, in the case of “1,1-Dimethylethyl [4- [[(6-aminoiminomethyl-2-naphthalenyl)amino]carbonyl]phenyl]carbamate [Example 76]” it was 0.96 µM; in that of “6-(aminoiminomethyl)-N-(1,3-benzodioxol-5-yl)-2-naphthalenecarboxamide [Example 188]”, 0.22 µM. In the case of “6-(aminoiminomethyl)-N-phenyl-4-(tetrahydro-3-furanyl)-2-naphthalenecarboxamide [Example 180]”, under setting [1], the IC50 was found to be 0.097 µM. As to `COC(=O)Nc1cc(C(=O)Nc2ccc(CN)cc2)cc2ccc(C(N)=NO)cc12` [Example 170, methyl [3-[[[4-(aminomethyl)phenyl]amino]carbonyl]-7-[4-amino(hydroxyimino)methyl]-1-naphthalenyl]carbamate], under setting [2], the IC50 is 0.695 µM.

Under setting [2], `N=C(N)c1ccc2cc(-c3ncc(-c4ccccc4)s3)ccc2c1` [Example 145, 6-(5-phenyl-2-thiazolyl)-2-naphthalenecarboximidamide] displayed an IC50 of 2.59 µM. Consider “Ethyl [6-(aminoiminomethyl)-2-naphthalenyl]carbamate [Example 78]”, for which the IC50 under setting [1] is 3.57 µM. `N=C(N)c1ccc2cccc(Nc3ccccn3)c2c1` [Example 174, 8-(2-pyridinylamino)-2-naphthalenecarboximidamide] displayed an IC50 under setting [2] of 0.17 µM. As for “methyl [7-(aminoiminomethyl)-2-methoxy-I-naphthalenyl)carbamate [Example 99]”, the IC50 under setting [1] is 3.02 µM. The same measure, in the same setting: in the case of “7-methoxy-8-(2-pyrimidinylamino)-2-naphthalenecarboximidamide [Example 100]” it was 3.16 µM. Still for that read-out and setting: then “(E)-6-[2-[4-(hydroxymethyl)phenyl]ethenyl]-2-naphthalenecarboximidamide [Example 108]”, with 0.996 µM.

In the case of “6-(aminoiminomethyl)-4-[5-(methoxymethyl)-3-furanyl]-N-phenyl-2-naphthalenecarboxamide [Example 230]”, the IC50 under setting [1] stood at 0.103 µM. For “6-(aminoiminomethyl)-N-(1H-indol-5-yl)-2-naphthalenecarboxamide [Example 205]”, under setting [1], the IC50 was found to be 0.337 µM. For the compound `[H]/N=C(/N)c1ccc2cc(C=Cc3cccs3)ccc2c1` [Example 45, (E)-6-[2-(2-Thienyl)ethenyl]-2-naphthalenecarboximidamide], the IC50 under setting [2] was determined as 2.94 µM. On to “methyl 2-[4-[[[6-(aminoiminomethyl)-2-naphthalenyl]carbonyl]amino]phenoxy]acetate [Example 95]”, for which the IC50 under setting [1] was 1.73 µM. The compound `COc1ccc2ccc(C(=N)N)cc2c1Oc1ncccn1` [Example 64, 7-Methoxy-8-[2-pyrimidinyl(oxy)]-2-naphthalenecarboximidamide] showed an IC50 under setting [2] of 0.56 µM.

“6-(aminoiminomethyl)-N-(1, 2, 3, 4-tetrahydro-2, 4-dioxo5-pyrimidinyl)-2-naphthalenecarboxamide [Example 189]”: the IC50 under setting [1] came to 1.3 µM. Turning to `N=C(N)c1ccc2cc(C#Cc3ccc(N)cc3)ccc2c1` [Example 121, 6-[(4-aminophenyl)ethynyl]-2-naphthalenecarboximidamide], the IC50 under setting [2] was determined as 0.89 µM. On to “1,1-dimethylethyl [2-[3-[6-(aminoiminomethyl)-2-naphathalenyl]ethynyl]-6-methoxyphenyl]ethyl]carbamate [Example 122]”, for which, under setting [1], the IC50 worked out at 0.33 µM. The same measure, in the same setting: then `[H]/N=C(/N)c1ccc2ccc(OC)c(C=Cc3ccccc3)c2c1` [Example 27, (E)-{7-Methoxy-8-[2-(Phenyl)ethenyl]}-2-naphthaleneimidamide], with 0.93 µM; and “1-[(7-Aminoiminomethyl-2-methoxy-1-naphthalenyl)oxy]-3-hydroxypropane [Example 10]”, with 3.2 µM. As for `N=C(N)c1ccc2cc(OCC(=O)O)ccc2c1` [Example 212], the IC50 under setting [1] is 5.09 µM. In turn, `COC(=O)c1ccc(COc2ccc3ccc(C(N)=NO)cc3c2)cc1` [Example 182] showed an IC50 under setting [2] above 30 µM. Turning to “6-(aminoiminomethyl)-N-(1H-pyrazol-3-yl)-2-naphthalenecarboxamide [Example 191]”, the IC50 under setting [1] came to 0.887 µM.

Compound `[H]/N=C(/N)c1ccc2cc(C=Cc3ccc(CN)cc3)ccc2c1` [Example 98, (E)-6-[2-[4-(aminomethyl)phenyl]ethenyl]-2-naphthalenecarboximidamide] displayed an IC50 under setting [2] of 0.24 µM. Regarding “Methyl [(7-aminoiminomethyl-2-methoxy-1-naphthalenyl)oxy]acetate [Example 6]”, the IC50 under setting [1] came out at 2.3 µM. Take “5-[[6-(aminoiminomethyl)-2-naphthalenyl]oxy]pentanoic acid [Example 129]”: the IC50 under setting [1] was 4.84 µM. With “propyl [7-(aminoiminomethyl)-1-naphthalenyl]carbamate [Example 156]”, the half-inhibitory concentration (IC50) under setting [1] is 0.18 µM. Same read-out and setting: then “ethyl [7-(aminoiminomethyl)-1-naphthalenyl)carbamate [Example 158]”, with 0.09 µM. With `COc1ccc2ccc(C(=N)N)cc2c1C1CCOC1` (racemic) [Example 62, (±)-7-Methoxy-8-(tetrahydro-3-furanyl)-2-naphthalenecarboximidamide], for the setting “IC50”, the IC50 amounted to 0.64 µM. “N-[7-(aminoiminomethyl)-1-naphthalenyl]-2-(phenylmethoxy)acetamide [Example 18]”: the IC50 under setting [1] turned out to be 0.42 µM. Same read-out and setting: then “N-[7-(aminoiminomethyl)-1-naphthalenyl)-2-methoxyacetamide [Example 160]”, with 2.62 µM; and “6-(aminoiminomethyl)-N-(3-propoxyphenyl)-2-naphthalenecarboxamide [Example 218]”, with 0.086 µM; and “6-(aminoiminomethyl)-N-(2-methyl-6-quinolinyl)-2-naphthalenecarboxamide [Example 217]”, with 0.67 µM. On the same count and under the same terms, in the case of `COC(=O)NCc1cccc2ccc(C(=N)N)cc12` [Example 155, methyl [7-(aminoiminomethyl)-1-naphthalenyl]methyl carbamate] it was 2.33 µM.
